We go through three compounds from US20230414510A1 (CRITITECH, INC., priority 2020, published 2023).

Data set [1] in a line: Dissolution in 40% isopropanol 37° C., rotating paddle 50 rpm. Type of data set: physicochemical. The procedure: Exemplary processed products were also used for dissolution for comparison to unprocessed/raw material. Dissolution studies were carried out in 40% isopropanol 37° C. with a rotating paddle at 50 rpm.
The next data set can be described thus: Tapped density. The note with it: for Bulk Tapped Density: Table 8. Type of data set: physicochemical. From the text: As used herein, the tapped density of a particle is obtained by mechanically tapping a graduated cylinder containing the sample until little further volume change is observed.
Data set [2] in a line: Mass median aerodynamic diameter (MMAD) of aerosol, rotating brush generator and TSI Aerodynamic Particle Sizer 3321. The note with it: for GSD: second figure of the MMAD/GSD cell. Type of data set: physicochemical.
A short description of data set [3]: Specific surface area (SSA) by BET sorptometry. Type of data set: physicochemical. Conditions: for Surface Area: Table 8. The procedure: The BET specific surface area test procedure is a compendial method included in both the United States Pharmacopeia and the European Pharmacopeia.
(§1) Approximately 63 precipitation runs (approximately 500 mg to 10 grams) were conducted on the RC612B precipitation unit, according to examples provided above. Variables modified between each precipitation are detailed in Tables 1-3 below. The precipitates were analyzed by laser diffraction to determine PSD, BET sorptometry to determine SSA, and SEM to determine habit and support PSD and SSA data.
SSA determination analyses were conducted on a Porous Materials, Inc., Automated BET Sorptometer BET-202A according to manufacturer's instructions.

The nature of data set [4]: Particle size distribution (PSD) by laser diffraction, Malvern Mastersizer 3000 Aero S. Conditions: for Mean Geometric Particle size Dv50: Table 8. The data set is classed as physicochemical. As for the experimental part:
as §1
PSD analyses were conducted on a Malvern Mastersizer™ 3000 using the Aero S™ dispersion unit according to manufacturer's instructions.

A short description of data set [5]: Bulk density (not tapped). Type of data set: physicochemical. From the text: As used herein, the bulk density (not tapped) of a particle is the ratio of the mass to the volume (including the interparticulate void volume) of an untapped powder sample.
The target of data set [6] is T1, TMEM16A (Anoctamin-1, Ano1) (Homo sapiens, UniProt Q5XXA6).
T1 sequence (Q5XXA6 1-986): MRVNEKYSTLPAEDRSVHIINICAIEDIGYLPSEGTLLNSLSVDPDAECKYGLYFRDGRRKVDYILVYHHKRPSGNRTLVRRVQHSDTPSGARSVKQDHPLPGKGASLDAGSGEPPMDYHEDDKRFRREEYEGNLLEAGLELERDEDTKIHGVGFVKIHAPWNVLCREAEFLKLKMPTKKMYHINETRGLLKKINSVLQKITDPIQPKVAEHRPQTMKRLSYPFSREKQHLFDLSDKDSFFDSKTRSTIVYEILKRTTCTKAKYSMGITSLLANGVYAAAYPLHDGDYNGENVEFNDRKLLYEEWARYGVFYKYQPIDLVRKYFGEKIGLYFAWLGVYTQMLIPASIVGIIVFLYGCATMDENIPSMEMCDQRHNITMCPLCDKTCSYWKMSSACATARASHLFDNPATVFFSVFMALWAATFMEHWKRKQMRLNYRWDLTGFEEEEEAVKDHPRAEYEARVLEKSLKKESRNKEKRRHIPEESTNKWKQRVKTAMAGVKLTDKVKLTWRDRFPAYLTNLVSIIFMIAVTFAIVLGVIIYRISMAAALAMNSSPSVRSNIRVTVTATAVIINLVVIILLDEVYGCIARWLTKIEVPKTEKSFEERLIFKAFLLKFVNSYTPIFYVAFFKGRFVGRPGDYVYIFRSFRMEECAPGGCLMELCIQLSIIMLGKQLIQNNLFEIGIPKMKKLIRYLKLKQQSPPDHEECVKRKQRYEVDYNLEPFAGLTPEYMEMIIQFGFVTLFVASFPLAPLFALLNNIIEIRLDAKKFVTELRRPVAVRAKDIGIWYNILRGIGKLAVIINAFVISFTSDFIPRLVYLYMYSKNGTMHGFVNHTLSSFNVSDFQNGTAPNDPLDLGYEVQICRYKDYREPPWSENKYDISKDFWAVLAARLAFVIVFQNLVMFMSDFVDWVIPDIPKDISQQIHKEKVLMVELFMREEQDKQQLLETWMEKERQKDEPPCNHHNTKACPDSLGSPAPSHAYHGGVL
The note with it: Miner et al., 2019; cited from earlier work.

The conditions of data set [7]: intravenous; Andrews et al., 1982; Schweizer et al., 2018; cited from earlier work.
The mark [8] stands for this setting: listed as Milled (micronized) Niclosamide Drug Substance.
Setting [9] is: volume distribution, unit not given in Tables 1-3, 6, 7.

As to `O=C(Nc1ccc([N+](=O)[O-])cc1Cl)c1cc(Cl)ccc1O` [Micronized Niclosamide API, niclosamide], the “Dissolution in 40% isopropanol 37C 50 rpm rotating paddle” value is recorded as 2.9% in data set [1] (5 min, listed as Milled (micronized) Niclosamide Drug Substance); 4.7% in data set [1] (15 min, listed as Milled (micronized) Niclosamide Drug Substance); 8.4% in data set [1] (30 min, listed as Milled (micronized) Niclosamide Drug Substance); 12.7% in data set [1] (60 min, listed as Milled (micronized) Niclosamide Drug Substance); 17.3% in data set [1] (90 min, listed as Milled (micronized) Niclosamide Drug Substance); 23.3% in data set [1] (120 min, listed as Milled (micronized) Niclosamide Drug Substance). In addition, the “Bulk Tapped Density” value in “Tapped density” (setting [8]) is given as 0.62 gm/cm3. Moreover, in “Tapped density” (Tables 1-3 print no unit), the “Tapped Density” value turned out to be 0.619. This compound also yielded a GSD in data set [2] (setting [8]) of 1.74. In addition, the “Surface Area” value in data set [3] (setting [8]) was found to be 3.264 m2/gm. Besides, the “Mean Geometric Particle size Dv50” value in data set [4] (setting [8]) is listed as 2.97 microns. For the same compound, the “PSD-Mastersizer Dv-10” value in data set [4] (setting [9]) was determined as 0.765. The “PSD-Mastersizer Dv-50” value in data set [4] (setting [9]) was determined as 2.97. Also, the “PSD-Mastersizer Dv-90” value in data set [4] (setting [9]) is on record as 6.39. Moreover, the “Bulk Density” value in data set [5] (Table 8, listed as Milled (micronized) Niclosamide Drug Substance) turned out to be 0.49 gm/cm3; in data set [5] (not tapped, Tables 1-3 print no unit), 0.486.
`O=C(Nc1ccc([N+](=O)[O-])cc1Cl)c1cc(Cl)ccc1O` [Niclosamide Drug Substance, niclosamide]: the “Dissolution in 40% isopropanol 37C 50 rpm rotating paddle” value is reported as 1.7% in data set [1] (5 min); 3.8% in data set [1] (15 min); 6.5% in data set [1] (30 min); 11.2% in data set [1] (60 min); 15% in data set [1] (90 min); 20.6% in data set [1] (120 min). In addition, the “Bulk Tapped Density” value in “Tapped density” was 0.57 gm/cm3. This compound showed an MMAD in data set [2] (aerosol from rotating brush generator) of 2.64 microns. Also, in data set [2], the GSD is on record as 1.82. In data set [3], the “Surface Area” value was 1.359 m2/gm. Further, the “Inhibition of TMEM16A” value in data set [6] was “potent inhibitor”. Besides, the “Mean Geometric Particle size Dv50” value in data set [4] is given as 21.1 microns. For the same compound, the “Bulk Density” value in data set [5] (Table 8) is 0.45 gm/cm3. The “Toxicity when administered intravenously” value in data set [7] is reported as “substantial toxicity”.
`NCCO.O=C(Nc1ccc([N+](=O)[O-])cc1Cl)c1cc(Cl)ccc1O` [Niclosamide ethanolamine, niclosamide ethanolamine] registered an SSA in data set [3] (BET, Tables 4, 5) of 2.684 m^2/g.
